Source: patent US5314998A, “Organic solvent-soluble metal-azo and metal-azomethine dyes” (Minnesota Mining and Manufacturing Company, priority 1992, dated 1994)

How the values were obtained:
[1] = Thermogravimetric analysis, loss of pyridine ligand; assay type: physicochemical
[2] = reported to decompose, apparently without melting; cited from earlier work
[3] = Differential Scanning Calorimeter scan, melting behaviour; conditions: Differential Scanning Calorimeter scan of analytically pure compound
Description: Melting points of the metal complexes were determined using a Thomas-Hoover melting point apparatus or by differential scanning calorimetry at a heating rate of 5° C. per minute.

[4] = Solubility in heptane (absorbance at maximum of saturated solution), chromium metal-azo complexes; assay type: physicochemical; conditions: room temperature (22° C.)
Description: The samples were prepared by shaking the dye in heptane for several hours, allowing the samples to sit overnight, and filtering through a plug of glass wool to remove particulates.

[5] = Solubility in heptane (absorbance at maximum), four-coordinate platinum metal-azo complexes; assay type: physicochemical; conditions: ambient temperature
From the text: ^b result obtained by measuring in a 1 cm cell and dividing result by
^c estimate based on fitting the spectrum in the 510-550 nm region.

Compound	Temperature of 50% Loss of Pyridine Ligand [1] [°C]	DSC melting behaviour [3]	Absorbance at Maximum in Heptane/1 mm Cell [4]	other results
[Cu+2].[O-]c1ccccc1N=Nc1ccccc1[O-].c1ccncc1 [Compound 8, [[2,2-azobis[phenolato]](-2)-N,O,O](pyridine)copper]	133			decomposition temperature [2]: 310 °C
CCCCC(CCCC)c1ccncc1.[Cu+2].[O-]c1ccccc1N=Nc1ccccc1[O-] [Compound 9, [[2,2-azobis[phenolato]](-2)-N,O,O](4-(5-nonylpyridine))copper]	148	has a classic melting transition associated with organic-like compounds		
CCCCC(CCCC)c1ccncc1.CCCCN(CCCC)S(=O)(=O)c1ccc([O-])c(N=Nc2c([O-])ccc3ccccc23)c1.[Cu+2] [Compound 11, [1-[5-N,N-dibutylsulfonamido-2-hydroxyphenyl]azo-2-naphthalenolato(-2)](4-(5-nonylpyridine))copper]	223	has a classic melting transition associated with organic-like compounds		
CC(=O)[CH-]C(C)=O.[Cr+3].[O-]c1ccccc1N=Nc1ccccc1[O-].c1ccncc1 [Compound 28, [[2,2-azobis[phenolato]](-2)-N,O,O](pyridine)(2,4-pentanedionato-O,O)chromium]			0.022	
CC(=O)C=C(C)[O-].CCc1ccncc1.[Cr+3].[O-]c1ccccc1N=Nc1ccccc1[O-] [Compound 31, [[2,2-azobis[phenolato]](-2)-N,O,O](2,4-pentanedionato-O,O)(4-ethylpyridine)chromium]			0.644	
CC(=O)C=C(C)[O-].CCOC(=O)c1cccnc1.[Cr+3].[O-]c1ccccc1N=Nc1ccccc1[O-] [Compound 32, [[2,2-azobis[phenolato]](-2)-N,O,O](2,4-pentanedionato-O,O)(ethyl nicotinate)chromium]			0.362	
[O-]c1ccccc1N=Nc1ccccc1[O-].[Pt+2].c1ccncc1 [Pt(DHAB)Py, [[2,2azobis[phenolato]](2)-N,O,O](pyridine)platinum, reference compound]				Absorbance at Maximum in Heptane/1 mm Cell [5]: 0.41
[1-[5-N,N-dibutylsulfonamido-2-hydroxyphenyl]azo-2-naphthalenolato(-2)](pyridine)copper [Compound 10]	180	does not exhibit a clean melt		
[[2,2-azobis[phenolato]](-2)-N,O,O](2,4-pentanedionato-O,O)(ethyl isonicotinate)chromium [Compound 33]			0.634	
[[2,2-azobis[phenolato]](-2)-N,O,O](4-n-octylpyridine)platinum [Compound 17]				Absorbance at Maximum in Heptane/1 mm Cell [5]: 2.49
